{"source": "patent US10266526B2", "about": "“Substituted 1,2,3-triazoles as SMYD inhibitors for treating cancer” (EPIZYME, INC., priority 2014, dated 2019)", "data": [{"molecular_target": "SMYD2 (Homo sapiens (Human), UniProt Q9NRG4)", "sequence (Q9NRG4 whole entry)": "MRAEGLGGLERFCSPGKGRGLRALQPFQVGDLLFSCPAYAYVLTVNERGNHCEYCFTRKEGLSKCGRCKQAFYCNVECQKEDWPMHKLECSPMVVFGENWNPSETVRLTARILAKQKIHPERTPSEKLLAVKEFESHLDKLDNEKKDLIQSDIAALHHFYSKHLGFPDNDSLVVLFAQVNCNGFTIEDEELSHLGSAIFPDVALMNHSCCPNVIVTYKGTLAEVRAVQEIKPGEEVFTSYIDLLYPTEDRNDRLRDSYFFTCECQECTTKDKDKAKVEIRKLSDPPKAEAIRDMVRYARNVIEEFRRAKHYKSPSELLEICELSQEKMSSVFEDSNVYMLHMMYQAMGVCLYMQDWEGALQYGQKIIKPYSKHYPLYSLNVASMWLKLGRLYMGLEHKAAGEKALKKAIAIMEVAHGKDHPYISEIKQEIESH", "experiment": "SMYD2 biochemical assay (SMYD2 enzyme assay on peptide substrate, 3H-SAM Flashplate)", "details": "read-out: SMYD2 Biochem IC50; IC50 values are an average of n = 1 to n = 50", "units": {"IC50": "nM"}, "from_the_text": "S-adenosylmethionine (SAM), S-adenosylhomocysteine (SAH), bicine, Tween20, dimethylsulfoxide (DMSO), bovine skin gelatin (BSG), and Tris(2-carboxyethyl)phosphine hydrochloride (TCEP) were purchased from Sigma-Aldrich at the highest level of purity possible. ^3H-SAM was purchase from American Radiolabeled Chemicals with a specific activity of 80 Ci/mmol. 384-well streptavidin Flashplates were purchased from PerkinElmer.\nThe sequence was [sequence](K-Biot)-amide.\nProduction of Recombinant SMYD2 Enzymes for Biochemical Enzyme Activity Assays\nFull length SMYD2 (NP_064582.2) was cloned into a pFastbac-Htb-lic vector with an N-terminal His6 tag and FLAG tag, preceded by a TEV protease cleavage site. The protein was expressed in Sf9 insect cells. Cells were resuspended in lysis buffer (25 mM HEPES-NaOH, pH 7.5, 200 mM NaCl, 5% glycerol, and 5 mM (3-ME) and lysed by sonication. The protein was purified by Ni-NTA (Qiagen), followed by TEV cleavage to remove the His6 tag, subtractive Ni-NTA (Qiagen), and gel filtration chromatography using an S200 column (GE Healthcare). Purified protein was stored in 20 mM Tris-HCl, pH 8.0, 100 mM NaCl, and 1 mM TCEP.\nGeneral Procedure for SMYD2 Enzyme Assays on Peptide Substrates\nThe assays were all performed in a buffer consisting of 20 mM Bicine (pH=7.6), 1 mM TCEP, 0.005% Bovine Skin Gelatin, and 0.002% Tween20, prepared on the day of use. […] DMSO (1 ul) was added to Columns 11, 12, 23, 24, rows A-H for the maximum signal control and 1 ul of SAH, a known product and inhibitor of SMYD2, was added to columns 11, 12, 23, 24, rows I-P for the minimum signal control. A cocktail (40 ul) containing the SMYD2 enzyme was added by Multidrop Combi (Thermo-Fisher). The compounds were allowed to incubate with SMYD2 for 30 min at room temperature, then a cocktail (10 ul) containing ^3H-SAM and peptide was added to initiate the reaction (final volume=51 ul). […] The assays were stopped by the addition of non-radioactive SAM (10 ul) to a final concentration of 600 uM, which dilutes the ^3H-SAM to a level where its incorporation into the peptide substrate is no longer detectable. 50 ul of the reaction in the 384-well polypropylene plate was then transferred to a 384-well Flashplate and the biotinylated peptides were allowed to bind to the streptavidin surface for at least 1 hour before being washed three times with 0.1% Tween20 in a Biotek ELx405 plate washer. The plates were then read in a PerkinElmer TopCount plate reader to measure the quantity of ^3H-labeled peptide bound to the Flashplate surface, measured as disintegrations per minute (dpm) or alternatively, referred to as counts per minute (cpm).\nWhere dpm=disintegrations per minute, cmpd=signal in assay well, and min and max are the respective minimum and maximum signal controls.\nWhere top and bottom are the normally allowed to float, but may be fixed at 100 or 0 respectively in a 3-parameter fit. The Hill Coefficient normally allowed to float but may also be fixed at 1 in a 3-parameter fit. I is the compound concentration.", "values": [{"smiles": "O=C(NC1CN(Cc2ccc(OCCO)cc2)C1)c1cn(C2CC2)nn1", "note": "[compound 827, 1-cyclopropyl-N-(1-{[4-(2-hydroxyethoxy)phenyl]methyl}azetidin-3-yl)-1H-1,2,3-triazole-4-carboxamide]", "IC50": 1380}, {"smiles": "O=C(NC1CN(Cc2ccc(OCc3ccncc3)cc2)C1)c1cn(C2CC2)nn1", "note": "[compound 828, 1-cyclopropyl-N-(1-{[4-(pyridin-4-ylmethoxy)phenyl]methyl}azetidin-3-yl)-1H-1,2,3-triazole-4-carboxamide]", "IC50": 1030}, {"smiles": "CC(c1ccc(OCC(=O)N2CCOCC2)cc1)N1CC(NC(=O)c2cn(C3CC3)nn2)C1", "note": "(stereo not drawn) [compound 829, 1-cyclopropyl-N-[1-(1-(4-[2-(morpholin-4-yl)-2-oxoethoxy]phenyl}ethyl)azetidin-3-yl]-1H-1,2,3-triazole-4-carboxamide]", "IC50": 713}, {"smiles": "COCCOc1ccc(CN2CC(NC(=O)c3cn(C4CC4)nn3)C2)cc1", "note": "[compound 830, 1-cyclopropyl-N-(1-{[4-(2-methoxyethoxy)phenyl]methyl}azetidin-3-yl)-1H-1,2,3-triazole-4-carboxamide]", "IC50": 2070}, {"smiles": "Cn1cc(CN2CC(NC(=O)c3cc(C4CC4)cnn3)C2)c(Cl)n1", "note": "[compound 833, N-{1-[(3-chloro-1-methyl-1H-pyrazol-4-yl)methyl]azetidin-3-yl}-5-cyclopropylpyridazine-3-carboxamide]", "IC50": 940}, {"smiles": "CN(C)CCNC(=O)c1cn(C2CC2)nn1", "note": "[compound 834, 1-cyclopropyl-N-[2-(dimethylamino)ethyl]-1H-1,2,3-triazole-4-carboxamide]", "IC50": "> 50000"}, {"smiles": "CNCc1cccc(C(C)N2CC(NC(=O)c3cn(C4CC4)nn3)C2)c1OC", "note": "(stereo not drawn) [compound 835, 1-cyclopropyl-N-[1-(1-(2-methoxy-3-[(methylamino)methyl]phenyl}ethyl)azetidin-3-yl]-1H-1,2,3-triazole-4-carboxamide]", "IC50": 780}, {"smiles": "CC(c1ccc(OCc2ccccc2)cc1)N1CC(NC(=O)c2cc(C3CC3)cnn2)C1", "note": "(stereo not drawn) [compound 836, N-(1-{1-[4-(benzyloxy)phenyl]ethyl}azetidin-3-yl)-5-cyclopropylpyridazine-3-carboxamide]", "IC50": 26.5}, {"smiles": "CC[C@@H](c1cccc(Cl)c1)N1CC(NC(=O)c2cn(C3CC3)nn2)C1", "note": "[compound 837, N-{1-[(1S)-1-(3-chlorophenyl)propyl]azetidin-3-yl}-1-cyclopropyl-1H-1,2,3-triazole-4-carboxamide]", "IC50": 340}, {"smiles": "O=C(NC1CN(Cc2cn(CCc3ccccc3)cn2)C1)c1cc(C2CC2)cnn1", "note": "[compound 838, 5-cyclopropyl-N-(1-{[1-(2-phenylethyl)-1H-imidazol-4-yl]methyl}azetidin-3-yl)pyridazine-3-carboxamide]", "IC50": 496}, {"smiles": "CC(NC(=O)c1cc(C2CC2)cnn1)C1CNC1", "note": "(stereo not drawn) [compound 839, N-[1-(azetidin-3-yl)ethyl]-5-cyclopropylpyridazine-3-carboxamide]", "IC50": 18200}, {"smiles": "CC(NC(=O)c1cc(C2CC2)cnn1)C1CN(C(C)C)C1", "note": "(stereo not drawn) [compound 840, 5-cyclopropyl-N-{1-[1-(propan-2-yl)azetidin-3-yl]ethyl}pyridazine-3-carboxamide]", "IC50": 36800}, {"smiles": "COc1ccccc1[C@H](C)N1CC(NC(=O)c2cc(C3CC3)cnn2)C1", "note": "[compound 841, 5-cyclopropyl-N-{1-[(1S)-1-(2-methoxyphenyl)ethyl]azetidin-3-yl}pyridazine-3-carboxamide]", "IC50": 5010}, {"smiles": "COc1ccccc1[C@@H](C)N1CC(NC(=O)c2cc(C3CC3)cnn2)C1", "note": "[compound 842, 5-cyclopropyl-N-{1-[(1R)-1-(2-methoxyphenyl)ethyl]azetidin-3-yl}pyridazine-3-carboxamide]", "IC50": 189}, {"smiles": "COc1ccc(C(C)N2CC(NC(=O)c3cn(C4CC4)nn3)C2)c(Cl)c1", "note": "(stereo not drawn) [compound 845, N-{1-[1-(2-chloro-4-methoxyphenyl)ethyl]azetidin-3-yl}-1-cyclopropyl-1H-1,2,3-triazole-4-carboxamide]", "IC50": 88}, {"smiles": "O=C(NC1CN(Cc2ccc(OCc3cscn3)cc2)C1)c1cn(C2CC2)nn1", "note": "[compound 846, 1-cyclopropyl-N-(1-{[4-(1,3-thiazol-4-ylmethoxy)phenyl]methyl}azetidin-3-yl)-1H-1,2,3-triazole-4-carboxamide]", "IC50": 1090}, {"smiles": "O=C(NC1CN(Cc2ccc(OCc3ccccn3)cc2)C1)c1cn(C2CC2)nn1", "note": "[compound 849, 1-cyclopropyl-N-(1-{[4-(pyridin-2-ylmethoxy)phenyl]methyl}azetidin-3-yl)-1H-1,2,3-triazole-4-carboxamide]", "IC50": 2660}, {"smiles": "COc1cccc(C(C)N2CC(NC(=O)c3cc(C4CC4)cnn3)C2)c1Cl", "note": "(stereo not drawn) [compound 851, N-{1-[1-(2-chloro-3-methoxyphenyl)ethyl]azetidin-3-yl}-5-cyclopropylpyridazine-3-carboxamide]", "IC50": 72.1}, {"smiles": "CC(c1ccc(OCCc2ccccc2)cc1)N1CC(NC(=O)c2cn(C3CC3)nn2)C1", "note": "(stereo not drawn) [compound 853, 1-cyclopropyl-N-(1-{1-[4-(2-phenylethoxy)phenyl]ethyl}azetidin-3-yl)-1H-1,2,3-triazole-4-carboxamide]", "IC50": 776}, {"smiles": "CNC(=O)c1ccc(COc2ccc(C(C)N3CC(NC(=O)c4cn(C5CC5)nn4)C3)cc2)cc1", "note": "(stereo not drawn) [compound 854, 1-cyclopropyl-N-{1-[1-(4-{[4-(methylcarbamoyl)phenyl]methoxy}phenyl)ethyl]azetidin-3-yl}-1H-1,2,3-triazole-4-carboxamide]", "IC50": 965}, {"smiles": "COc1ccc(COc2ccc(C(C)N3CC(NC(=O)c4cn(C5CC5)nn4)C3)cc2)cc1", "note": "(stereo not drawn) [compound 855, 1-cyclopropyl-N-[1-(1-{4-[(4-methoxyphenyl)methoxy]phenyl}ethyl)azetidin-3-yl]-1H-1,2,3-triazole-4-carboxamide]", "IC50": 159}, {"smiles": "COc1ccc(C(C)N2CC(NC(=O)c3cc(C4CC4)cnn3)C2)cc1", "note": "(stereo not drawn) [compound 856, 5-cyclopropyl-N-{1-[1-(4-methoxyphenyl)ethyl]azetidin-3-yl}pyridazine-3-carboxamide]", "IC50": 603}, {"smiles": "CC(c1ccc(OCCN(C)C)cc1)N1CC(NC(=O)c2cn(C3CC3)nn2)C1", "note": "(stereo not drawn) [compound 857, 1-cyclopropyl-N-[1-(1-{4-[2-(dimethylamino)ethoxy]phenyl}ethyl)azetidin-3-yl]-1H-1,2,3-triazole-4-carboxamide]", "IC50": 1980}, {"smiles": "CC(c1ccc(OCCCN(C)C)cc1)N1CC(NC(=O)c2cn(C3CC3)nn2)C1", "note": "(stereo not drawn) [compound 858, 1-cyclopropyl-N-[1-(1-{4-[3-(dimethylamino)propoxy]phenyl}ethyl)azetidin-3-yl]-1H-1,2,3-triazole-4-carboxamide]", "IC50": 4790}, {"smiles": "CC(c1ccccc1Cl)N1CC(NC(=O)c2cn(C3CC3)nn2)C1", "note": "(stereo not drawn) [compound 859, N-{1-[1-(2-chlorophenyl)ethyl]azetidin-3-yl}-1-cyclopropyl-1H-1,2,3-triazole-4-carboxamide]", "IC50": 160}, {"smiles": "COc1ccc(Cl)cc1C(C)N1CC(NC(=O)c2cn(C3CC3)nn2)C1", "note": "(stereo not drawn) [compound 860, N-{1-[1-(5-chloro-2-methoxyphenyl)ethyl]azetidin-3-yl}-1-cyclopropyl-1H-1,2,3-triazole-4-carboxamide]", "IC50": 2790}, {"smiles": "COc1cccc(C(C)N2CC(NC(=O)c3cc(C4CC4)cnn3)C2)c1OC", "note": "(stereo not drawn) [compound 861, 5-cyclopropyl-N-{1-[1-(2,3-dimethoxyphenyl)ethyl]azetidin-3-yl}pyridazine-3-carboxamide]", "IC50": 121}, {"smiles": "CC(c1ccc(NCc2ccccc2)cc1)N1CC(NC(=O)c2cn(C3CC3)nn2)C1", "note": "(stereo not drawn) [compound 862, N-(1-{1-[4-(benzylamino)phenyl]ethyl}azetidin-3-yl)-1-cyclopropyl-1H-1,2,3-triazole-4-carboxamide]", "IC50": 334}, {"smiles": "CC(c1ccc(OCC(C)(C)C)cc1)N1CC(NC(=O)c2cn(C3CC3)nn2)C1", "note": "(stereo not drawn) [compound 864, 1-cyclopropyl-N-(1-{1-[4-(2,2-dimethylpropoxy)phenyl]ethyl}azetidin-3-yl)-1H-1,2,3-triazole-4-carboxamide]", "IC50": 3140}, {"smiles": "COc1cnc(C(C)N2CC(NC(=O)c3cn(C4CC4)nn3)C2)nc1", "note": "(stereo not drawn) [compound 865, 1-cyclopropyl-N-{1-[1-(5-methoxypyrimidin-2-yl)ethyl]azetidin-3-yl}-1H-1,2,3-triazole-4-carboxamide]", "IC50": 1640}, {"smiles": "CC[C@@H](c1cccc(Cl)c1)N1CC(NC(=O)c2cc(C3CC3)cnn2)C1", "note": "[compound 866, N-{1-[(1S)-1-(3-chlorophenyl)propyl]azetidin-3-yl}-5-cyclopropylpyridazine-3-carboxamide]", "IC50": 355}, {"smiles": "CN(C)CCCNC(=O)c1cc(C2CC2)cnn1", "note": "[compound 867, 5-cyclopropyl-N-[3-(dimethylamino)propyl]pyridazine-3-carboxamide]", "IC50": "> 50000"}, {"smiles": "CC(c1ccc(OCc2ccccc2)c(Cl)c1)N1CC(NC(=O)c2cn(C3CC3)nn2)C1", "note": "(stereo not drawn) [compound 868, N-(1-{1-[4-(benzyloxy)-3-chlorophenyl]ethyl}azetidin-3-yl)-1-cyclopropyl-1H-1,2,3-triazole-4-carboxamide]", "IC50": 925}, {"smiles": "CN(C)CCNC(=O)c1cc(C2CC2)cnn1", "note": "[compound 869, 5-cyclopropyl-N-[2-(dimethylamino)ethyl]pyridazine-3-carboxamide]", "IC50": 21100}, {"smiles": "C[C@@H](c1ccccc1)N1CC(NC(=O)c2ncc(C3CC3)[nH]2)C1", "note": "[compound 914, 5-cyclopropyl-N-{1-[(1S)-1-phenylethyl]azetidin-3-yl}-1H-imidazole-2-carboxamide]", "IC50": 729}, {"smiles": "C[C@H](c1ccccc1)N1CC(NC(=O)c2ncc(C3CC3)[nH]2)C1", "note": "[compound 915, 5-cyclopropyl-N-{1-[(1R)-1-phenylethyl]azetidin-3-yl}-1H-imidazole-2-carboxamide]", "IC50": "> 50000"}, {"smiles": "CC(C)N1CCC(NC(=O)c2cc(C3CC3)cnn2)CC1", "note": "[compound 916, 5-cyclopropyl-N-[1-(propan-2-yl)piperidin-4-yl]pyridazine-3-carboxamide]", "IC50": 29100}, {"smiles": "CN1CCC(NC(=O)c2cc(C3CC3)cnn2)CC1", "note": "[compound 917, 5-cyclopropyl-N-(1-methylpiperidin-4-yl)pyridazine-3-carboxamide]", "IC50": "> 50000"}, {"smiles": "CN1CCCC(NC(=O)c2cc(C3CC3)cnn2)C1", "note": "(stereo not drawn) [compound 918, 5-cyclopropyl-N-(1-methylpiperidin-3-yl)pyridazine-3-carboxamide]", "IC50": "> 50000"}]}]}
